Measurements reported in patent publication US8309581B2, “Benzimidazole derivatives” (Hoffmann-La Roche Inc., priority 2009, dated 2012).

Target: T1, FXR ligand binding domain (Homo sapiens, UniProt Q96RI1)
T1 construct: made in house; host or cells: E. coli BL21 (pLysS)
T1 sequence (Q96RI1 193-472 isoform Q96RI1-2): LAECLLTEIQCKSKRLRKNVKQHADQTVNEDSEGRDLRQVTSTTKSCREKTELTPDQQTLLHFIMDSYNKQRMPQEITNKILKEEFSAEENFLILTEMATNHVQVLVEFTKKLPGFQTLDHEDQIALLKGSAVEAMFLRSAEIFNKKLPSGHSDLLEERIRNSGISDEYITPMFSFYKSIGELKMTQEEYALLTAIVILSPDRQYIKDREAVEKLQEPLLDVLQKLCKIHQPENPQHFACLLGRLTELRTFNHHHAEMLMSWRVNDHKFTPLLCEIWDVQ
Experiment: Radioligand Binding Assay (scintillation proximity radioligand displacement)
Conditions: GST-FXR LBD fusion protein on SPA beads, test compound 6×10^−9 M to 2.5×10^−5 M
Experimental: The following tests were carried out in order to determine the activity of the compounds of formula (I). Background information on the binding assay can be found in: Nichols J S et al. “Development of a scintillation proximity assay for peroxisome proliferator-activated receptor gamma ligand binding domain”, (1998) Anal. Biochem. 257: 112-119.
Bacterial and mammalian expression vectors were constructed to produce glutathione-s-transferase (GST) and Gal4 DNA binding domain (GAL) proteins fused to the ligand binding domain (LBD) of human FXR (aa 193-473). To accomplish this, the portions of the sequences encoding the FXR LBD were amplified by polymerase chain reaction (PCR) from a full-length clone by PCR and then subcloned into the plasmid vectors. The final clone was verified by DNA sequence analysis.
The induction, expression, and subsequent purification of GST-LBD fusion protein was performed in E. coli strain BL21 (pLysS) cells by standard methods (Current Protocols in Molecular Biology, Wiley Press, ed. Ausubel et al.).
Radioligand Binding Assay
Binding of test substances to the FXR ligand binding domain was assessed in a radioligand displacement assay. The assay was performed in a buffer consisting of 50 mM Hepes, pH 7.4, 10 mM NaCl, 5 mM MgCl2, 0.01% CHAPS. For each reaction well in a 96-well plate, 40 nM of GST-FXR LBD fusion protein was bound to […] glutathione ytrium silicate SPA beads (PharmaciaAmersham) in a final volume of […] by shaking. A radioligand (e.g., 20 nM of 2,N-dicyclohexyl-2-[2-(2,4 dimethoxy-phenyl)-benzoimidazol-1-yl]-acetamide) and test compounds were added, and scintillation proximity counting was performed. All binding assays were performed in 96-well plates and the amount of bound ligand was measured on a Packard TopCount using OptiPlates (Packard). Dose response curves were performed within a range of test compound concentrations from 6×10^−9 M to 2.5×10^−5 M and IC50 values were calculated.

Structure (SMILES)	IC50 [nM]
O=C(O)c1ccc(COc2cc(Cl)ccc2-c2nc3cc(F)c(F)cc3n2Cc2cccc(Cl)c2)cc1 [Example 56, 4-{5-Chloro-2-[1-(3-chloro-benzyl)-5,6-difluoro-1H-benzoimidazol-2-yl]-phenoxymethyl}-benzoic acid]	500
O=C(O)COc1ccc(COc2cc(Cl)ccc2-c2nc3cc(F)c(F)cc3n2Cc2cccc(Cl)c2)cc1 [Example 57, (4-{5-Chloro-2-[1-(3-chloro-benzyl)-5,6-difluoro-1H-benzoimidazol-2-yl]-phenoxymethyl}-phenoxy)-acetic acid]	200
O=C(O)CCc1ccc(Cn2c(-c3ccc(Cl)cc3OCc3ccccc3Cl)nc3cc(F)c(F)cc32)cc1 [Example 58, 3-(4-{2-[4-Chloro-2-(2-chloro-benzyloxy)-phenyl]-5,6-difluoro-benzoimidazol-1-ylmethyl}-phenyl)-propionic acid]	30
O=C(O)CCc1ccc(Cn2c(-c3ccc(Cl)cc3OCC3CCCC3)nc3cc(F)c(F)cc32)cc1 [Example 59, 3-{4-[2-(4-Chloro-2-cyclopentylmethoxy-phenyl)-5,6-difluoro-benzoimidazol-1-ylmethyl]-phenyl}-propionic acid]	300
O=C(O)CCc1ccc(Cn2c(-c3ccc(Cl)cc3OCC3CC3)nc3cc(F)c(F)cc32)cc1 [Example 60, 3-{4-[2-(4-Chloro-2-cyclopropylmethoxy-phenyl)-5,6-difluoro-benzoimidazol-1-ylmethyl]-phenyl}-propionic acid]	1300
O=C(O)c1cccc(Cn2c(-c3ccc(Cl)cc3OCC3CCCC3)nc3cc(F)c(F)cc32)c1 [Example 61, 3-[2-(4-Chloro-2-cyclopentylmethoxy-phenyl)-5,6-difluoro-benzoimidazol-1-ylmethyl]-benzoic acid]	500
O=C(O)c1ccc(Cn2c(-c3ccc(Cl)cc3OCC3CCCC3)nc3cc(F)c(F)cc32)cc1 [Example 62, 4-[2-(4-Chloro-2-cyclopentylmethoxy-phenyl)-5,6-difluoro-benzoimidazol-1-ylmethyl]-benzoic acid]	400
O=C(O)Cc1ccc(Cn2c(-c3ccc(Cl)cc3OCC3CCCC3)nc3cc(F)c(F)cc32)cc1 [Example 63, {4-[2-(4-Chloro-2-cyclopentylmethoxy-phenyl)-5,6-difluoro-benzoimidazol-1-ylmethyl]-phenyl}-acetic acid]	700
O=C(O)COc1ccc(Cn2c(-c3ccc(Cl)cc3OCC3CCCC3)nc3cc(F)c(F)cc32)cc1 [Example 64, {4-[2-(4-Chloro-2-cyclopentylmethoxy-phenyl)-5,6-difluoro-benzoimidazol-1-ylmethyl]-phenoxy}-acetic acid]	200
O=C(O)CCCCCn1c(-c2ccc(Cl)cc2OCC2CCCC2)nc2cc(F)c(F)cc21 [Example 65, 6-[2-(4-Chloro-2-cyclopentylmethoxy-phenyl)-5,6-difluoro-benzoimidazol-1-yl]-hexanoic acid]	3700
O=C(O)C1CCC(Cn2c(-c3ccc(Cl)cc3OCC3CCCC3)nc3cc(F)c(F)cc32)CC1 (stereo not shown) [Example 66, 4-[2-(4-Chloro-2-cyclopentylmethoxy-phenyl)-5,6-difluoro-benzoimidazol-1-ylmethyl]-cyclohexane carboxylic acid]	1800
Fc1cc2nc(-c3ccc(Cl)cc3OCC3CCCC3)n(Cc3cccc(-c4nnn[nH]4)c3)c2cc1F [Example 67, 2-(4-Chloro-2-cyclopentylmethoxy-phenyl)-5,6-difluoro-1-[3-(1H-tetrazol-5-yl)-benzyl]-1H-benzoimidazole]	90
Fc1cc2nc(-c3ccc(Cl)cc3OCC3CCCC3)n(Cc3ccc(-c4nnn[nH]4)cc3)c2cc1F [Example 68, 2-(4-Chloro-2-cyclopentylmethoxy-phenyl)-5,6-difluoro-1-[4-(1H-tetrazol-5-yl)-benzyl]-1H-benzoimidazole]	40
Fc1cc2nc(-c3ccc(Cl)cc3OCC3CCCC3)n(Cc3ccc(-c4nnn[nH]4)c(F)c3)c2cc1F [Example 69, 2-(4-Chloro-2-cyclopentylmethoxy-phenyl)-5,6-difluoro-1-[3-fluoro-4-(1H-tetrazol-5-yl)-benzyl]-1H-benzoimidazole]	80
Fc1cc2nc(-c3ccc(Cl)cc3OCC3CCCC3)n(Cc3ccc(-c4nnn[nH]4)cc3F)c2cc1F [Example 70, 2-(4-Chloro-2-cyclopentylmethoxy-phenyl)-5,6-difluoro-1-[2-fluoro-4-(1H-tetrazol-5-yl)-benzyl]-1H-benzoimidazole]	10
COc1cc(Cl)ccc1-c1nc2cc(F)c(F)cc2n1Cc1ccc(-c2nnn[nH]2)cc1F [Example 71, 2-(4-Chloro-2-methoxy-phenyl)-5,6-difluoro-1-[2-fluoro-4-(1H-tetrazol-5-yl)-benzyl]-1H-benzoimidazole]	1100
Fc1cc2nc(-c3ccc(Cl)cc3C#Cc3ccc(-c4nnn[nH]4)cc3)n(CC3CCCCC3)c2cc1F [Example 72, 2-{4-Chloro-2-[4-(1H-tetrazol-5-yl)-phenylethynyl]-phenyl}-1-cyclohexylmethyl-5,6-difluoro-1H-benzoimidazole]	3600
Fc1cc2nc(-c3ccc(Cl)cc3CCc3ccc(-c4nnn[nH]4)cc3)n(CC3CCCCC3)c2cc1F [Example 73, 2-(4-Chloro-2-{2-[4-(1H-tetrazol-5-yl)-phenyl]-ethyl}-phenyl)-1-cyclohexylmethyl-5,6-difluoro-1H-benzoimidazole]	10
Clc1ccc(-c2nc3ccccc3n2CC2CCCCC2)c(CCc2ccc(-c3nnn[nH]3)cc2)c1 [Example 74, 2-(4-Chloro-2-{2-[4-(1H-tetrazol-5-yl)-phenyl]-ethyl}-phenyl)-1-cyclohexylmethyl-1H-benzoimidazole]	30
O=C(O)c1ccc(CCc2cc(Cl)ccc2-c2nc3ccccc3n2CC2CCCCC2)cc1 [Example 75, 4-{2-[5-Chloro-2-(1-cyclohexylmethyl-1H-benzoimidazol-2-yl)-phenyl]-ethyl}-benzoic acid]	30
Fc1cc2nc(-c3ccccc3CCc3ccc(-c4nnn[nH]4)cc3)n(CC3CCCCC3)c2cc1F [Example 76, 1-Cyclohexylmethyl-5,6-difluoro-2-(2-{2-[4-(1H-tetrazol-5-yl)-phenyl]-ethyl}-phenyl)-1H-benzoimidazole]	100
O=C(O)c1ccc(CCc2ccccc2-c2nc3cc(F)c(F)cc3n2CC2CCCCC2)cc1 [Example 77, 4-{2-[2-(1-Cyclohexylmethyl-5,6-difluoro-1H-benzoimidazol-2-yl)-phenyl]-ethyl}-benzoic acid]	30
O=C(O)c1ccc(CCc2ccccc2-c2nc3ccccc3n2CC2CCCCC2)cc1 [Example 78, 4-{2-[2-(1-Cyclohexylmethyl-1H-benzoimidazol-2-yl)-phenyl]-ethyl}-benzoic acid]	90
O=C(O)COc1ccc(CCc2ccccc2-c2nc3ccccc3n2CC2CCCCC2)cc1 [Example 79, (4-{2-[2-(1-Cyclohexylmethyl-1H-benzoimidazol-2-yl)-phenyl]-ethyl}-phenoxy)-acetic acid]	80
c1ccc(-c2nc3ccccc3n2CC2CCCCC2)c(CCc2ccc(-c3nnn[nH]3)cc2)c1 [Example 80, 1-Cyclohexylmethyl-2-(2-{2-[4-(1H-tetrazol-5-yl)-phenyl]-ethyl}-phenyl)-1H-benzoimidazole]	30
